This test has as its system L5178Y. Nature of the test: Concentration required for inhibition of murine leukemia L5178Y cells. The class given is functional, Mus musculus.

On to `CC1(C)N=C(N)N=C(N)N1c1cccc(OCCCCOc2cccc(C(F)(F)F)c2)c1`, for which the “Log 1/C” value came out at 7.14.

On to `CCCCCCCCCCCCOc1cccc(N2C(N)=NC(N)=NC2(C)C)c1`, for which the “Log 1/C” value was determined as 6.41.

As to `CN(Cc1cnc2nc(N)nc(N)c2n1)c1ccc(C(=O)N[C@@H](CCC(=O)O)C(=O)O)cc1` [METHOTREXATE], the “Log 1/C” value was found to be 8.89.

On to `CC1(C)N=C(N)N=C(N)N1c1cccc(OCc2ccccc2)c1`, for which the “Log 1/C” value came to 7.78.

Take `CC1(C)N=C(N)N=C(N)N1c1cccc(COc2ccccc2)c1`: the “Log 1/C” value was 8.2.

Regarding `CC1(C)N=C(N)N=C(N)N1c1cccc(COc2cccc(Cl)c2)c1`, the “Log 1/C” value worked out at 8.1.

For `CCCCCCCCCOc1cccc(N2C(N)=NC(N)=NC2(C)C)c1`, the “Log 1/C” value is 6.93.

Consider `CC1(C)N=C(N)N=C(N)N1c1ccc(OCc2cccc(C(N)=O)c2)c(Cl)c1`, for which the “Log 1/C” value is 7.53.

On to `CC1(C)N=C(N)N=C(N)N1c1cccc(COc2cccc(C#N)c2)c1`, for which the “Log 1/C” value is on record as 8.09.

For the molecule `CC1(C)N=C(N)N=C(N)N1c1cccc(OCc2ccc(Cl)c(Cl)c2)c1`, the “Log 1/C” value was determined as 7.15.

In the case of `CC1(C)N=C(N)N=C(N)N1c1cccc(COc2cccc(CO)c2)c1`, the “Log 1/C” value was 8.32.

Take `CC1(C)N=C(N)N=C(N)N1c1cccc([N+](=O)[O-])c1`: the “Log 1/C” value stood at 7.66.

Regarding `CC(=O)c1cccc(N2C(N)=NC(N)=NC2(C)C)c1`, the “Log 1/C” value is recorded as 6.96.

Regarding `CC(=O)Nc1cccc(OCc2cccc(N3C(N)=NC(N)=NC3(C)C)c2)c1`, the “Log 1/C” value was 8.66.

As to `CCOC(=O)c1cccc(N2C(N)=NC(N)=NC2(C)C)c1`, the “Log 1/C” value amounted to 8.13.

`CC1(C)N=C(N)N=C(N)N1c1cccc(COc2cccc(NC(N)=O)c2)c1`: the “Log 1/C” value stood at 8.18.

Turning to `COc1cccc(OCc2cccc(N3C(N)=NC(N)=NC3(C)C)c2)c1`, the “Log 1/C” value is given as 8.02.

Consider `CC1(C)N=C(N)N=C(N)N1c1cccc(F)c1`, for which the “Log 1/C” value turned out to be 7.94.

For `CCc1cccc(OCc2cccc(N3C(N)=NC(N)=NC3(C)C)c2)c1`, the “Log 1/C” value turned out to be 8.11.

In the case of `CC1(C)N=C(N)N=C(N)N1c1cccc(OCCOc2ccccc2)c1`, the “Log 1/C” value worked out at 7.34.

`Cc1cccc(OCc2cccc(N3C(N)=NC(N)=NC3(C)C)c2)c1`: the “Log 1/C” value came to 8.16.

On to `CC1(C)N=C(N)N=C(N)N1c1cccc(CNc2cc(C(N)=O)cc(C(N)=O)c2)c1`, for which the “Log 1/C” value is 7.01.

Consider `CC1(C)N=C(N)N=C(N)N1c1cccc(C(N)=O)c1`, for which the “Log 1/C” value came out at 6.1.

Take `CC1(C)N=C(N)N=C(N)N1c1cccc(OCCCCOc2ccccc2)c1`: the “Log 1/C” value is on record as 6.97.

Regarding `CC1(C)N=C(N)N=C(N)N1c1cccc(Br)c1`, the “Log 1/C” value turned out to be 8.42.

Turning to `Cc1cccc(N2C(N)=NC(N)=NC2(C)C)c1`, the “Log 1/C” value was found to be 8.01.

Turning to `CC(C)(C)c1cccc(OCc2cccc(N3C(N)=NC(N)=NC3(C)C)c2)c1`, the “Log 1/C” value is 7.3.

As to `CC1(C)N=C(N)N=C(N)N1c1cccc(C(O)c2ccccc2)c1` (stereo not drawn), the “Log 1/C” value is 6.41.

Take `CC1(C)N=C(N)N=C(N)N1c1cccc(I)c1`: the “Log 1/C” value is 8.4.

On to `CC1(C)N=C(N)N=C(N)N1c1cccc(OCCOc2cccc(C(F)(F)F)c2)c1`, for which the “Log 1/C” value is listed as 7.37.

As for `CC1(C)N=C(N)N=C(N)N1c1cccc(COc2cccc(NC(=N)S)c2)c1`, the “Log 1/C” value is given as 8.08.

As for `CC(C)(C)c1cccc(N2C(N)=NC(N)=NC2(C)C)c1`, the “Log 1/C” value amounted to 7.59.

Take `CC(C)c1cccc(OCc2cccc(N3C(N)=NC(N)=NC3(C)C)c2)c1`: the “Log 1/C” value turned out to be 8.13.

(Values after ChEMBL document CHEMBL1122006, “Comparison of quantitative structure-activity relationships of the inhibition of leukemia cells in culture with the inhibition of dihydrofolate reductase from leukemia cells and other cell types” (1982).)
